US5622962A, “5α-reductase inhibitors” (priority 1995, dated 1997)
“And” between values parts separate entries of the source, which are not always exact repeats. Identical values can stand only once. Like-named read-outs stand apart in the source and are kept apart here.

Legend:
[1] = target: T1, Type II 5α-Reductase from Human Prostate (Homo sapiens, UniProt P31213); experiment: Human Type II 5α-reductase assay (conversion of [3H]-testosterone to 5α-reduced metabolites); assay type: biochemical
T1 construct: The same procedure as above was used for preparations using tissue from prostate surgery; from tissue; host or cells: human prostate tissue from surgery, homogenate, 100,000×g pellet
T1 sequence (P31213 1-254): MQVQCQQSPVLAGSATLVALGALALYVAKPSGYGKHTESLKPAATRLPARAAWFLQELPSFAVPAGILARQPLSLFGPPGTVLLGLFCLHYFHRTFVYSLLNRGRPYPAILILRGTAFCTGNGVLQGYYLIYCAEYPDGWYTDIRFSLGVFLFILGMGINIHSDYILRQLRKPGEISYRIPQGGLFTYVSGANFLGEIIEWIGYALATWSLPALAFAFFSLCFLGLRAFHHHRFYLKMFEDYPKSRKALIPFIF

[2] = target: T2, Type I 5α-Reductase from Human Scalp (Homo sapiens, UniProt P18405); experiment: Human Type I 5α-reductase assay (conversion of [3H]-testosterone to 5α-reduced metabolites); assay type: biochemical; settings: for percent inhibition of Type I AR: 0.3 μM
T2 construct: Scalp punch biopsies from graft recipient sites were obtained from human hair transplant procedures; from tissue; host or cells: human scalp punch biopsies (hair transplant graft recipient sites), homogenate, 100,000×g pellet
T2 sequence (P18405 1-259): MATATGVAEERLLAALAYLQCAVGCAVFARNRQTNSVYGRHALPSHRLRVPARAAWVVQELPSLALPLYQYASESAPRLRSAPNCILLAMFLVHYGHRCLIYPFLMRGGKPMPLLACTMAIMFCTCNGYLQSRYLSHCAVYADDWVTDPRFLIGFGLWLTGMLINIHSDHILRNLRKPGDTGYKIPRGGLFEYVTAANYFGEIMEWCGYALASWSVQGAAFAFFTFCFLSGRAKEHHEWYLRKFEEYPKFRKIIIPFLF

[3] = pH 5.5, 0.3 μM, sodium acetate pH 5.5, 25°, 30 min, compared to control reaction mixtures, read-out: percent inhibition of Type II AR
[4] = pH 7.5, 0.3 μM, 50 nM [3H]-testosterone, pH 7.5, 25°, 180 min, compared to control reaction mixtures, read-out: percent inhibition of Type I AR
[5] = 50 nM [3H]-testosterone, pH 7.5, 25°, 180 min, compared to control reaction mixtures

| Structure (SMILES) | inhibition at 0.3 µM [1, 3] | inhibition at 0.3 µM [2, 4] | also measured |
| --- | --- | --- | --- |
| COc1ccccc1-c1ccc2c(c1)CC[C@H]1N(C)C(=O)CC[C@]21C [Example 39, (+)-(4aR)-(10bR)-4-methyl-8-(2-methoxyphenyl)-10b-methyl-1,2,3,4,4a,5,6,10b-octahydrobenzo[f]quinolin-3-one] | 34% | 81% |  |
| CN1C(=O)CC[C@]2(C)c3ccc(-c4ccccc4Cl)cc3CC[C@@H]12 [Example 41, (+)-(4aR)-(10bR)-4-methyl-8-(2-chlorophenyl)-10b-methyl-1,2,3,4,4a,5,6,10b-octahydrobenzo[f]quinolin-3-one] | 18% | 88% |  |
| CN1C(=O)CC[C@]2(C)c3ccc(-c4ccccc4C(F)(F)F)cc3CC[C@@H]12 [Example 43, (+)-(4aR)-(10bR)-4-methyl-8-(2-trifluoromethylphenyl)-10b-methyl-1,2,3,4,4a,5,6,10b-octahydrobenzo[f]quinolin-3-one] | 18% | 68% |  |
| CN1C(=O)CC[C@]2(C)c3ccc(-c4ccc(F)c(C(F)(F)F)c4)cc3CC[C@@H]12 [Example 46, (+)-(4aR)-(10bR)-4-methyl-8-(4-fluoro-3-trifluoromethylphenyl)-10b-methyl-1,2,3,4,4a,5,6,10b-octahydrobenzo[f]-quinolin-3-one] | 31% | 3% |  |
| CN1C(=O)CC[C@]2(C)c3ccc(-c4cc(Cl)cc(Cl)c4)cc3CC[C@@H]12 [Example 52, (+)-(4aR)-(10bR)-4-methyl-8-(3,5-dichlorophenyl)-10b-methyl-1,2,3,4,4a,5,6,10b-octahydrobenzo[f]quinolin-3-one] | 10% | 68% |  |
| CN1C(=O)CC[C@]2(C)c3ccc(-c4cccc5ccccc45)cc3CC[C@@H]12 [Example 53, (+)-(4aR)-(10bR)-4-methyl-8-(1-naphthyl)-10b-methyl-1,2,3,4,4a,5,6,10b-octahydrobenzo[f]quinolin-3-one] | 41% |  | percent inhibition of Type I AR [2, 5]: 100% and 66% |
| CN1C(=O)CC[C@]2(C)c3ccc(-c4ccc(Oc5ccccc5)cc4)cc3CC[C@@H]12 [Example 56, (+)-(4aR)-(10bR)-4-methyl-8-(4-phenoxyphenyl)-10b-methyl-1,2,3,4,4a,5,6,10b-octahydrobenzo[f]quinolin-3-one] | 3% | 92% |  |
| CN1C(=O)CC[C@]2(C)c3ccc(-c4ccc5cc(OCc6ccccc6)ccc5c4)cc3CC[C@@H]12 [Example 62, (+)-(4aR)-(10bR)-4-methyl-8-(2-[6-benzyloxy]naphthyl)-10b-methyl-1,2,3,4,4a,5,6,10b-octahydrobenzo[f]quinolin-3-one] | 42% | 45% |  |
| CN1C(=O)CC[C@]2(C)c3ccc(-c4cc5ccccc5c5ccccc45)cc3CC[C@@H]12 [Example 67, (+)-(4aR)-(10bR)-4-methyl-8-(9-phenanthrenyl)-10b-methyl-1,2,3,4,4a,5,6,10b-octahydrobenzo[f]quinolin-3-one] |  |  | inhibition at 0.3 µM ([1]; pH 5.5, read-out: percent inhibition of Type II AR): 54%; inhibition at 0.3 µM ([2]; pH 7.5, read-out: percent inhibition of Type I AR): 22% |
| CCCN(CC1CC1)c1ccc(-c2ccc3c(c2)CC[C@H]2N(C)C(=O)CC[C@]32C)c2ccccc12 [Example 68, (+)-(4aR)-(10bR)-4-methyl-8-(4-[N-propyl,N-cyclopropylmethylamino]-1-naphthyl)-10b-methyl-1,2,3,4,4a,5,6,10b-octahydrobenzo[f]quinolin-3-one] | 37% | 31% |  |
| CN1C(=O)CC[C@]2(C)c3ccc(-c4ccc5ccccc5c4)cc3CC[C@@H]12 [Example 71, (+)-(4aR)-(10bR)-4-methyl-8-(2-naphthyl)-10b-methyl-1,2,3,4,4a,5,6,10b-octahydrobenzo[f]quinolin-3-one] | 47% | 80% |  |
| CN1C(=O)CC[C@]2(C)c3ccc(-c4cccc(Cl)c4Cl)cc3CC[C@@H]12 [Example 73, (+)-(4aR)-(10bR)-4-methyl-8-(2,3-dichlorophenyl)-10b-methyl-1,2,3,4,4a,5,6,10b-octahydrobenzo[f]quinolin-3-one] | 16% | 87% |  |

Continued, in another order:

| inhibition at 0.3 µM [1, 3] | inhibition at 0.3 µM [2, 4] | Structure (SMILES) | also measured |
| --- | --- | --- | --- |
| 56% | 84% | CN1C(=O)CC[C@]2(C)c3ccc(-c4ccccc4F)cc3CC[C@@H]12 [Example 38, (+)-(4aR)-(10bR)-4-methyl-8-(2-fluorophenyl)-10b-methyl-1,2,3,4,4a,5,6,10b-octahydrobenzo[f]quinolin-3-one] | percent inhibition of Type II AR ([1]; 0.3 μM, sodium acetate pH 5.5, 25°, 30 min, compared to control reaction mixtures): 38% |
| 35% | 90% | Cc1ccccc1-c1ccc2c(c1)CC[C@H]1N(C)C(=O)CC[C@]21C [Example 40, (+)-(4aR)-(10bR)-4-methyl-8-(2-methylphenyl)-10b-methyl-1,2,3,4,4a,5,6,10b-octahydrobenzo[f]quinolin-3-one] |  |
| 4% | 96% | CN1C(=O)CC[C@]2(C)c3ccc(-c4ccccc4)cc3CC[C@@H]12 [Example 49, (+)-(4aR)-(10bR)-4-methyl-8-phenyl-10b-methyl-1,2,3,4,4a,5,6,10b-octahydrobenzo[f]quinolin-3-one] |  |
| 32% | 95% | CN1C(=O)CC[C@]2(C)c3ccc(-c4ccc(Cl)cc4)cc3CC[C@@H]12 [Example 50, (+)-(4aR)-(10bR)-4-methyl-8-(4-chlorophenyl)-10b-methyl-1,2,3,4,4a,5,6,10b-octahydrobenzo[f]quinolin-3-one] | percent inhibition of Type I AR [2, 5]: 94% |
| 14% | 91% | Cc1ccc(-c2ccc3c(c2)CC[C@H]2N(C)C(=O)CC[C@]32C)cc1 [Example 51, (+)-(4aR)-(10bR)-4-methyl-8-(4-methylphenyl)-10b-methyl-1,2,3,4,4a,5,6,10b-octahydrobenzo[f]quinolin-3-one] |  |
| 11% | 68% | CN1C(=O)CC[C@]2(C)c3ccc(-c4cccc(-c5ccccc5)c4)cc3CC[C@@H]12 [Example 55, (+)-(4aR)-(10bR)-4-methyl-8-(3-biphenyl)-10b-methyl-1,2,3,4,4a,5,6,10b-octahydrobenzo[f]quinolin-3-one] |  |
| 24% | 65% | CN1C(=O)CC[C@]2(C)c3ccc(-c4ccc(O)c(C=O)c4)cc3CC[C@@H]12 [Example 58, (+)-(4aR)-(10bR)-4-methyl-8-(3-formyl-4-hydroxyphenyl)-10b-methyl-1,2,3,4,4a,5,6,10b-octahydrobenzo[f]quinolin-3-one] |  |
| 36% | 53% | CN1C(=O)CC[C@]2(C)c3ccc(-c4c5ccccc5cc5ccccc45)cc3CC[C@@H]12 [Example 61, (+)-(4aR)-(10bR)-4-methyl-8-(9-anthracenyl)-10b-methyl-1,2,3,4,4a,5,6,10b-octahydrobenzo[f]quinolin-3-one] |  |
| 22% | 81% | CN1C(=O)CC[C@]2(C)c3ccc(-c4ccc(F)c5ccccc45)cc3CC[C@@H]12 [Example 64, (+)-(4aR)-(10bR)-4-methyl-8-(1-[4-fluoro]naphthyl)-10b-methyl-1,2,3,4,4a,5,6,10b-octahydrobenzo[f]quinolin-3-one] |  |
| 42% | 79% | Cc1ccc(-c2ccc3c(c2)CC[C@H]2N(C)C(=O)CC[C@]32C)c2ccccc12 [Example 65, (+)-(4aR)-(10bR)-4-methyl-8-(1-[4-methyl]naphthyl)-10b-methyl-1,2,3,4,4a,5,6,10b-octahydrobenzo[f]quinolin-3-one] |  |
| 33% | 67% | CN1C(=O)CC[C@]2(C)c3ccc(-c4ccc5c6c(cccc46)CC5)cc3CC[C@@H]12 [Example 66, (+)-(4aR)-(10bR)-4-methyl-8-(5-acenaphthenyl)-10b-methyl-1,2,3,4,4a,5,6,10b-octahydrobenzo[f]quinolin-3-one] |  |
| 6% | 84% | Cc1cccc(-c2ccc3c(c2)CC[C@H]2N(C)C(=O)CC[C@]32C)c1C [Example 69, (+)-(4aR)-(10bR)-4-methyl-8-(2,3-dimethylphenyl)-10b-methyl-1,2,3,4,4a,5,6,10b-octahydrobenzo[f]quinolin-3-one] |  |
| 26% | 16% | Cc1ccc2ccccc2c1-c1ccc2c(c1)CC[C@H]1N(C)C(=O)CC[C@]21C [Example 72, (+)-(4aR)-(10bR)-4-methyl-8-(1-[2-methyl]naphthyl)-10b-methyl-1,2,3,4,4a,5,6,10b-octahydrobenzo[f]quinolin-3-one] |  |
| 26% | 16% | CCN(CC)C(=O)c1ccccc1-c1ccc2c(c1)CC[C@H]1N(C)C(=O)CC[C@]21C [Example 74] |  |
